Data published in ChEMBL document CHEMBL1134114, “Novel sulfonate derivatives: potent antimitotic agents” (Bioorg Med Chem Lett, 2001).

Tests used:
NCI-H460 [1] = experiment: Antiproliferative activity against human lung carcinoma NCI-H460 cell line (MDR(-)); Inactive at >10 uM
HCT-15 [2] = experiment: Antiproliferative activity against human colon carcinoma HCT-15 cell line(MDR(+)); Inactive at >10 uM
HCT-15 [3] = experiment: Antiproliferative activity against human colon carcinoma HCT-15 cell line(MDR(+))
NCI-H460 [4] = experiment: Antiproliferative activity against human lung carcinoma NCI-H460 cell line (MDR(-))
Tubulin alpha chain = Tubulin alpha chain (Sus scrofa, UniProt P02550); experiment: Concentration inhibiting tubulin polymerization; assay type: functional
Chain of Tubulin alpha chain (P02550 whole entry, looked up): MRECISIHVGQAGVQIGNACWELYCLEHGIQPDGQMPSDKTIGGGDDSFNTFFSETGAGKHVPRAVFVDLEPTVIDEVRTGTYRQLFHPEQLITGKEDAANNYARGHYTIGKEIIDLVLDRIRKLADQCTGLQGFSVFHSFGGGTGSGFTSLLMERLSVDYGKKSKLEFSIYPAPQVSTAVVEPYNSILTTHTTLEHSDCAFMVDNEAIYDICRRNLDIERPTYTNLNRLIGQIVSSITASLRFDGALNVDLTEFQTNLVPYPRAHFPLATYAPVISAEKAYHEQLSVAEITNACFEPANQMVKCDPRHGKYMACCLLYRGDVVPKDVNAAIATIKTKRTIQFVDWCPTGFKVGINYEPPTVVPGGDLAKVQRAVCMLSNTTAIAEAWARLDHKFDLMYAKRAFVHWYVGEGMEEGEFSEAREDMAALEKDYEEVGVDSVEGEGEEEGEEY

IC50 (NCI-H460 [1])	IC50 (HCT-15 [2])	IC50 (HCT-15 [3]) [nM]	IC50 (NCI-H460 [4]) [nM]	IC50 (Tubulin alpha chain) [nM]	Compound
Not Active	Not Active				COc1ccc(S(=O)(=O)Oc2cccnc2NC(=O)c2ccncc2)cc1
		> 10000	> 10000		COc1ccc(S(=O)(=O)Oc2ccccc2NC(=O)c2ccc3ncccc3c2)cc1
		> 10000	> 10000		COc1ccc(S(=O)(=O)Oc2ccccc2NC(=O)c2ccc(N(C)C)cc2)cc1
		68	250	5200	COc1ccc(S(=O)(=O)Oc2ccccc2NC(=O)c2cnccn2)cc1
Not Active	Not Active				COc1ccc(S(=O)(=O)Oc2ccccc2C(=O)Nc2ccccc2C)cc1
		> 10000	> 10000		COc1ccc(S(=O)(=O)Oc2ccccc2NC(=O)c2ccnc3ccccc23)cc1
Not Active	Not Active				COc1ccc(S(=O)(=O)Oc2cccnc2NC(=O)c2ccco2)cc1
Not Active	Not Active				COc1ccc(S(=O)(=O)Oc2ccccc2C(=O)Nc2ccccc2)cc1
		56	130	3460	COc1ccc(S(=O)(=O)Oc2ccccc2/C=C/c2ccncc2)cc1
		310	410		COc1ccc(S(=O)(=O)Oc2ccccc2NC(=O)c2ccccc2)cc1
Not Active	Not Active				COc1ccc(S(=O)(=O)Oc2ccccc2C(=O)Nc2ccncc2)cc1
		89	550		COc1ccc(S(=O)(=O)Oc2ccccc2NC(=O)c2ccc(F)cc2)cc1
		89	55	3730	COc1ccc(S(=O)(=O)Oc2ccccc2NC(=O)c2ccncc2)cc1
		> 3000	> 6000		COc1ccc(S(=O)(=O)Oc2ccccc2NC(=O)c2cccnc2)cc1
		110	300	4060	COc1ccc(S(=O)(=O)Oc2ccccc2NC(=O)c2ccccn2)cc1
		> 10000	> 10000		COc1ccc(S(=O)(=O)Oc2ccccc2NC(=O)Oc2ccccc2)cc1
Not Active	Not Active				COc1ccc(S(=O)(=O)Oc2ccccc2C(=O)Nc2ccc(F)cc2)cc1
		19	24		COc1ccc(S(=O)(=O)Oc2ccccc2NC(=O)c2ccco2)cc1
		600	720		COc1ccc(S(=O)(=O)Oc2ccccc2NC(=O)Cc2ccncc2)cc1
		> 10000	> 10000		COc1ccc(S(=O)(=O)Oc2ccccc2NC(=O)Nc2ccccc2)cc1
		340	350	3100	COc1ccc(S(=O)(=O)Nc2cccnc2Nc2ccc(O)cc2)cc1 [ABT-751]
